What was measured:
[1] = system: human cancer cell lines; test: Human cancer cell line viability with CTPS-IA (CellTiter-Glo, 72 hours), IC50 correlated with CTPS1/CTPS2 RNA expression; type: cell-based; conditions: all three cell line sets (19, 60, 103 lines); P-value>0.05 in all cases
From the text: CTPS2 expression levels were also found to correlate with IC50 values for CTPS-IA. […] A nonlinear regression model was used to calculate half maximal inhibitory concentration (IC50). CTPS1 and CTPS2 expression levels, measured by RNA abundance, were either generated by RNA sequencing or retrieved from the publicly available Cancer Cell Line Encyclopedia. In a set of 19 human cancer cell lines derived from haematological cancers, lower CTPS2 expression was associated with increased sensitivity to CTPS-IA (Pearson correlation r=0.50, P-value=0.0007). In a set of 60 human cancer cell lines covering common cancer types, lower CTPS2 expression was associated with increased sensitivity to CTPS-IA (Pearson correlation r=0.24, P-value=<0.0001). In an independent set of 103 human cancer cell lines covering common cancer types, lower CTPS2 expression was associated with increased sensitivity to CTPS-IA (Pearson correlation r=0.14, P-value=<0.0001).

[2] = target: T1, CTPS1 (Homo sapiens, UniProt P17812); conditions: see e.g. WO2020083975 (CTPS-IA), WO2020245664 (CTPS-IB); cited from earlier work
T1 sequence (P17812 1-591): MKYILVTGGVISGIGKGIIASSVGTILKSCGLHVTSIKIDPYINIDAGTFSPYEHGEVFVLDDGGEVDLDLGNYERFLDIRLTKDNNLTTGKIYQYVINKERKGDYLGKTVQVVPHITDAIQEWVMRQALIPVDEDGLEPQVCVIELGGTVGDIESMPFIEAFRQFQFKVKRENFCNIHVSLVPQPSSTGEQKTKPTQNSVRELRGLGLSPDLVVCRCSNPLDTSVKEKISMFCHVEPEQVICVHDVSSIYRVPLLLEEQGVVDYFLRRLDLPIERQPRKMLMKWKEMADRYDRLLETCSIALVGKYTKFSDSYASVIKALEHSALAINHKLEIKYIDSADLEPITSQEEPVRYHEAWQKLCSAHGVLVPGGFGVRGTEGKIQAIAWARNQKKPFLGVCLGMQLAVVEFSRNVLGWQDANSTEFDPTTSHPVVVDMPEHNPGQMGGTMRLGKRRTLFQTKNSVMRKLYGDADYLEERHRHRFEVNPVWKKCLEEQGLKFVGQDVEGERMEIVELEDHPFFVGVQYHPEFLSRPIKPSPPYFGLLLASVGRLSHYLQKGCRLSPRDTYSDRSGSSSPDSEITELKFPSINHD

## CCOc1cncc(-c2ccc(NC(=O)C3(c4ccnc(NS(=O)(=O)C5CC5)n4)CCOCC3)nc2)n1 [CTPS-IA, 4-(2-(cyclopropanesulfonamido)pyrimidin-4-yl)-N-(5-(6-ethoxypyrazin-2-yl)pyridin-2-yl)tetrahydro-2H-pyran-4-carboxamide]
[1]
  Association of the level of CTPS1 expression with sensitivity to CTPS-IA: not associated with sensitivity to CTPS-IA
[2]
  CTPS1 inhibition and selectivity (in words): potent and selective inhibitor of CTPS1

## CCOc1cncc(-c2ccc(NC(=O)C3(c4ccnc(NS(=O)(=O)CC)n4)CCOCC3)nc2)n1 [CTPS-IB, N-(5-(6-ethoxypyrazin-2-yl)pyridin-2-yl)-4-(2-(ethylsulfonamido)pyrimidin-4-yl)tetrahydro-2H-pyran-4-carboxamide]
[2]
  CTPS1 inhibition and selectivity (in words): potent and selective inhibitor of CTPS1

Source: patent US20260207590A1, “CTPS1 INHIBITORS FOR USE IN THE TREATMENT OF CTPS2 DEFICIENT CANCER” (STEP PHARMA S.A.S., priority 2022, published 2026)
